pIC50: −log10 of the molar value. Active and inactive are the calls of the source. The calls are words filed in the database; no cut-off is given here.
Key:
[1] = Cytotoxicity against rat PC-12 cells assessed as cell viability at 50 uM by MTT assay relative to control; format: cell-based; settings: read-out: Activity
PC-12 [2] = assay: Neuroprotective activity against H2O2-induced cytotoxicity in rat PC12 cells assessed as increase in cell viability at 30 uM preincubated for 3 hrs followed by H2O2 addition and measured after 24 hrs by MTT assay (reference value: 24.8 to 41.7%); format: functional
PC-12 [3] = assay: Neuroprotective activity against H2O2-induced cytotoxicity in rat PC12 cells assessed as increase in cell viability at 10 uM preincubated for 3 hrs followed by H2O2 addition and measured after 24 hrs by MTT assay (reference value: 24.8 to 41.7%); format: functional
HepG2 = assay: Increase in glucose consumption in human HepG2 cells at 20 uM after 24 hrs by glucose oxidase assay; format: functional, cell-based
[4] = molecular target: Glycogen synthase kinase-3 beta (Homo sapiens, UniProt P49841); assay: Inhibition of GSK3beta (unknown origin) measured after 40 mins by ADP-Glo assay
[5] = Cytotoxicity against rat PC-12 cells assessed as cell viability at 30 uM by MTT assay relative to control; format: cell-based; settings: read-out: Activity
BV-2 = assay: Anti-neuroinflammation in mouse BV2 cells assessed as inhibition of LPS-induced NO production preincubated for 1 hr followed by LPS addition measured after 24 hrs by Griess reagent based assay; format: functional, cell-based

Sequence of Glycogen synthase kinase-3 beta (P49841 whole entry): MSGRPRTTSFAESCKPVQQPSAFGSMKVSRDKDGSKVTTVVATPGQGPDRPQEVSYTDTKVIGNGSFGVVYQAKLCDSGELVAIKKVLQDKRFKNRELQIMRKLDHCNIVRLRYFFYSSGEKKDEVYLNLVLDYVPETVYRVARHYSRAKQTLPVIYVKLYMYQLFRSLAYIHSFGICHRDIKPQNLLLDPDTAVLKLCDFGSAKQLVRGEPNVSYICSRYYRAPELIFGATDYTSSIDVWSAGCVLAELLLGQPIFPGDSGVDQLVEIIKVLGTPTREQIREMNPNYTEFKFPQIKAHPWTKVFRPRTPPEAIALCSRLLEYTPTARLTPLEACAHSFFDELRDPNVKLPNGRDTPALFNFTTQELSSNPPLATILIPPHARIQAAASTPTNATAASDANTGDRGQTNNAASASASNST

Row | SMILES | viability at 50 µM [1] [%] | Activity (PC-12 [2]) [%] | Activity (PC-12 [3]) [%] | Activity (HepG2) | pIC50 [4] | viability at 30 µM [5] [%] | pIC50 (BV-2)
1 | O=S(=O)(Nc1ccc(-c2nc(-c3ccnc(Nc4ccc(OC(F)(F)F)cc4)c3)no2)cc1)c1cccs1 | 94.5 | 54.9 | 57 | Active | 5.12 | 97.5 | 5.89
2 | Cc1ccccc1Nc1cc(-c2noc(-c3ccc(NS(=O)(=O)c4ccc(C(C)(C)C)cc4)cc3)n2)ccn1 | 99.3 | 69.3 | 51.5 |  | 5.64 | 100 | 5.22
3 | CC(C)(C)c1ccc(S(=O)(=O)Nc2ccc(-c3nc(-c4ccnc(Nc5ccc(Cl)cc5F)c4)no3)cc2)cc1 | 88.5 | 49.6 | 46 |  | 5.55 | 98.5 | 5.36
4 | CC(C)(C)c1ccc(S(=O)(=O)Nc2ccc(-c3nc(-c4ccnc(Nc5ccc(F)c(F)c5)c4)no3)cc2)cc1 | 92.7 | 60.4 | 49.6 | inactive | 5.88 | 97.7 | 5.61
5 | COC(=O)c1ccc(S(=O)(=O)Nc2ccc(-c3nc(-c4ccnc(Nc5ccc(OC(F)(F)F)cc5)c4)no3)cc2)s1 | 98.6 | 30.6 | 25.6 |  | 5.92 | 97.2 | 5.88
6 | O=S(=O)(Nc1ccc(-c2nc(-c3ccnc(Nc4ccc(OC(F)(F)F)cc4)c3)no2)cc1)c1ccc(F)cc1 | 97.9 | 67.3 | 59.4 |  | 5.57 | 99.9 | 5.36
7 | COc1ccc(Nc2cc(-c3noc(-c4ccc(NS(=O)(=O)c5ccc(C(C)(C)C)cc5)cc4)n3)ccn2)cc1 | 91.6 | 48.1 | 44.5 |  | 5.00 | 98.6 | 5.21
8 | CC(C)(C)c1ccc(Nc2cc(-c3noc(-c4ccc(NS(=O)(=O)c5ccc(C(C)(C)C)cc5)cc4)n3)ccn2)cc1 | 99.7 | 70.1 | 61.3 | Active | 6.25 | 96.2 | 4.96
9 | Cc1cccc(Nc2cc(-c3noc(-c4ccc(NS(=O)(=O)c5ccc(C(C)(C)C)cc5)cc4)n3)ccn2)c1 | 93.8 | 68.5 | 52.3 |  | 6.03 | 93.8 | 4.98
10 | O=S(=O)(Nc1ccc(-c2nc(-c3ccnc(Nc4ccc(OC(F)(F)F)cc4)c3)no2)cc1)c1ccc(OC(F)(F)F)cc1 | 100 | 32.4 | 30.6 |  | 5.06 | 98.7 | 5.37
11 | O=S(=O)(Nc1ccc(-c2nc(-c3ccnc(Nc4ccc(OC(F)(F)F)cc4)c3)no2)cc1)c1ccccc1OC(F)(F)F | 85.6 | 49.8 | 40.4 |  | 5.92 | 91.6 | 5.60
12 | CC(C)(C)c1ccc(S(=O)(=O)Nc2ccc(-c3nc(-c4ccnc(Nc5ccc(OC(F)(F)F)cc5)c4)no3)cc2)cc1 | 95.3 | 63.1 | 48.1 |  | 5.12 | 96.3 | 6.14
13 | CC(C)(C)c1ccc(S(=O)(=O)Nc2ccc(-c3nc(-c4ccnc(Nc5ccc(C(F)(F)F)cc5)c4)no3)cc2)cc1 | 94.1 | 71.9 | 63.2 |  | 5.83 | 99.1 | 5.06
14 | O=c1c(O)c(-c2ccc(O)c(O)c2)oc2cc(O)cc(O)c12 [QUERCETIN] | 99.5 | 65.7 | 53.4 |  |  | 99.1 | 
15 | O=S(=O)(Nc1ccc(-c2nc(-c3ccnc(Nc4ccc(OC(F)(F)F)cc4)c3)no2)cc1)c1cccc(C(F)(F)F)c1 | 90.4 | 60.7 | 54.6 | inactive | 5.58 | 97.4 | 5.83
16 | COc1ccc(S(=O)(=O)Nc2ccc(-c3nc(-c4ccnc(Nc5ccc(OC(F)(F)F)cc5)c4)no3)cc2)cc1 | 92.2 | 68.6 | 55.8 | Active | 4.81 | 99.2 | 5.49
17 | CC(=O)Nc1cccc(S(=O)(=O)Nc2ccc(-c3nc(-c4ccnc(Nc5ccc(OC(F)(F)F)cc5)c4)no3)cc2)c1 | 79.2 | 54.7 | 51.6 | inactive | 5.66 | 93.2 | 5.12
18 | CC(C)(C)c1ccc(S(=O)(=O)Nc2ccc(-c3nc(-c4ccnc(Nc5ccc(F)c(C(F)(F)F)c5)c4)no3)cc2)cc1 | 75.9 | 61.7 | 48.9 |  | 5.41 | 98.9 | 5.05
19 | Cc1ccc(Nc2cc(-c3noc(-c4ccc(NS(=O)(=O)c5ccc(C(C)(C)C)cc5)cc4)n3)ccn2)cc1 | 87.9 | 64.4 | 59.4 |  | 5.34 | 97.9 | 5.82
20 | O=S(=O)(Nc1ccc(-c2nc(-c3ccnc(Nc4ccc(OC(F)(F)F)cc4)c3)no2)cc1)c1ccc(Br)cc1 | 82.5 | 55.8 | 52.3 |  | 5.51 | 102 | 5.29
21 | CC(C)c1ccc(Nc2cc(-c3noc(-c4ccc(NS(=O)(=O)c5ccc(C(C)(C)C)cc5)cc4)n3)ccn2)cc1 | 78.8 | 54.4 | 48.3 |  | 5.68 | 98.8 | 5.11
22 | Oc1ccc(/C=C/c2cc(O)cc(O)c2)cc1 [RESVERATROL] |  |  |  |  |  |  | 4.99
23 | CCc1ccc(Nc2cc(-c3noc(-c4ccc(NS(=O)(=O)c5ccc(C(C)(C)C)cc5)cc4)n3)ccn2)cc1 | 83.6 | 36.6 | 31.5 |  | 5.49 | 98.6 | 5.27
24 | O=S(=O)(Nc1ccc(-c2nc(-c3ccnc(Nc4ccc(OC(F)(F)F)cc4)c3)no2)cc1)c1ccc(Cl)s1 | 87.9 | 32.7 | 27.1 |  | 5.53 | 97.9 | 5.21
25 | O=[N+]([O-])c1cccc(S(=O)(=O)Nc2ccc(-c3nc(-c4ccnc(Nc5ccc(OC(F)(F)F)cc5)c4)no3)cc2)c1 | 94.3 | 64.7 | 53.7 |  | 5.08 | 94.3 | 5.67
26 | O=S(=O)(Nc1ccc(-c2nc(-c3ccnc(Nc4ccc(OC(F)(F)F)cc4)c3)no2)cc1)c1ccc(F)c(Cl)c1 | 92.1 | 40.1 | 36.9 |  | 4.72 | 98.1 | 5.30
